Type in all cases: functional
Experiment [1] relates to Candida albicans. Kind of experiment: Antifungal activity against Candida albicans isolate Y0109 by micro-broth dilution method. (In broth dilution the organism is exposed to a series of concentrations in liquid medium.)
Experiment [2] has as its system Candida albicans. In words: Antifungal activity against Candida albicans isolate SC5314 by micro-broth dilution method.
The test system of another experiment is Candida parapsilosis. Kind of experiment: Antifungal activity against Candida parapsilosis isolate 22019 by micro-broth dilution method. As to conditions: Lodderomyces parapsilosis.
The test system of a further experiment is Cryptococcus neoformans. Kind of experiment: Antifungal activity against Cryptococcus neoformans isolate 32605 by micro-broth dilution method.
For a further experiment, the system named is Nakaseomyces glabratus. Kind of experiment: Antifungal activity against Candida glabrata isolate 537 by micro-broth dilution method.
For the next experiment, the system named is Aspergillus fumigatus. Kind of experiment: Antifungal activity against Aspergillus fumigatus isolate 7544 by micro-broth dilution method.
Another experiment has as its system Trichophyton rubrum. Kind of experiment: Antifungal activity against Trichophyton rubrum isolate cmccftla by micro-broth dilution method.
The next experiment concerns Nannizzia gypsea. In words: Antifungal activity against Microsporum gypseum isolate cmccftla by micro-broth dilution method.

Each structure is given as a SMILES string. ≈ marks a conversion by molar mass, not a printed value.

The MIC80 is an inhibitory concentration at the 80% level, which refers to growth in some studies and to a panel of isolates in others.

In the case of `C[C@@H](c1cc(-c2ccc([N+](=O)[O-])cc2)no1)[C@](O)(Cn1cncn1)c1ccc(F)cc1F`, the MIC80 in the experiment on Candida albicans [1] is 0.125 µg/mL (≈ 0.283 µM); in the experiment on Candida albicans [2], 0.125 µg/mL (≈ 0.283 µM); against Candida parapsilosis, 0.5 µg/mL (≈ 1.13 µM); against Cryptococcus neoformans, 0.125 µg/mL (≈ 0.283 µM); with Nakaseomyces glabratus, 0.5 µg/mL (≈ 1.13 µM); against Aspergillus fumigatus it was over 8 µg/mL. In addition, the figures for the MIC80 against Trichophyton rubrum and with Nannizzia gypsea were 1 µg/mL (≈ 2.27 µM) and 2 µg/mL (≈ 4.53 µM), respectively.
Turning to `C[C@@H](c1cc(-c2ccc(F)cc2)no1)[C@](O)(Cn1cncn1)c1ccc(F)cc1F`, the MIC80 in the experiment on Candida albicans [1] was 0.125 µg/mL (≈ 0.302 µM); against Candida albicans [2], 0.25 µg/mL (≈ 0.603 µM); with Candida parapsilosis, 0.0625 µg/mL (≈ 0.151 µM); in the experiment with Cryptococcus neoformans, 0.125 µg/mL (≈ 0.302 µM); in the experiment on Nakaseomyces glabratus it was 0.0313 µg/mL (≈ 0.0755 µM); in the experiment on Aspergillus fumigatus, 2 µg/mL (≈ 4.83 µM). Besides, the MIC80 worked out at 0.0625 µg/mL (≈ 0.151 µM) against Trichophyton rubrum and 0.5 µg/mL (≈ 1.21 µM) in the experiment on Nannizzia gypsea.
Turning to `C[C@@H](c1cc(-c2ccc(Cl)cc2)no1)[C@](O)(Cn1cncn1)c1ccc(F)cc1F`, the MIC80 against Candida albicans [1] was determined as 0.0313 µg/mL (≈ 0.0726 µM); against Candida albicans [2], 0.125 µg/mL (≈ 0.29 µM); against Candida parapsilosis, 0.125 µg/mL (≈ 0.29 µM); with Cryptococcus neoformans it was 0.125 µg/mL (≈ 0.29 µM); against Nakaseomyces glabratus, 0.125 µg/mL (≈ 0.29 µM); in the experiment on Aspergillus fumigatus it was 4 µg/mL (≈ 9.28 µM). Moreover, the MIC80 against Trichophyton rubrum turned out to be 0.125 µg/mL (≈ 0.29 µM); against Nannizzia gypsea it was 1 µg/mL (≈ 2.32 µM).
In the case of `Cc1ccc(-c2cc([C@H](C)[C@](O)(Cn3cncn3)c3ccc(F)cc3F)on2)cc1`, the MIC80 against Candida albicans [1] amounted to 0.25 µg/mL (≈ 0.609 µM); in the experiment on Candida albicans [2], 0.0625 µg/mL (≈ 0.152 µM); in the experiment on Candida parapsilosis, 0.125 µg/mL (≈ 0.305 µM); in the experiment with Cryptococcus neoformans, 0.125 µg/mL (≈ 0.305 µM); against Nakaseomyces glabratus it was 0.25 µg/mL (≈ 0.609 µM); in the experiment with Aspergillus fumigatus, 8 µg/mL (≈ 19.5 µM). The MIC80 in the experiment on Trichophyton rubrum worked out at 0.25 µg/mL (≈ 0.609 µM); in the experiment with Nannizzia gypsea, 2 µg/mL (≈ 4.87 µM).
Take `C[C@@H](c1cc(-c2ccc(C(F)(F)F)cc2)no1)[C@](O)(Cn1cncn1)c1ccc(F)cc1F`: the MIC80 is 0.125 µg/mL (≈ 0.269 µM) against Candida albicans [1]; 0.5 µg/mL (≈ 1.08 µM) in the experiment with Candida albicans [2]; 1 µg/mL (≈ 2.15 µM) in the experiment with Candida parapsilosis; 0.125 µg/mL (≈ 0.269 µM) with Cryptococcus neoformans; 1 µg/mL (≈ 2.15 µM) with Nakaseomyces glabratus; over 8 µg/mL in the experiment on Aspergillus fumigatus. The MIC80 against Trichophyton rubrum and against Nannizzia gypsea was 2 µg/mL (≈ 4.31 µM) in each case.
With `OC(Cn1cncn1)(Cn1cncn1)c1ccc(F)cc1F` [FLUCONAZOLE], the MIC80 with Candida albicans [1] is 0.25 µg/mL (≈ 0.816 µM); with Candida albicans [2] it was 0.5 µg/mL (≈ 1.63 µM); against Candida parapsilosis, 2 µg/mL (≈ 6.53 µM); in the experiment on Cryptococcus neoformans, 0.5 µg/mL (≈ 1.63 µM); against Nakaseomyces glabratus it was 2 µg/mL (≈ 6.53 µM); in the experiment on Aspergillus fumigatus it was over 64 µg/mL. For the same molecule, the MIC80 came to 8 µg/mL (≈ 26.1 µM) in the experiment with Trichophyton rubrum and 32 µg/mL (≈ 104 µM) against Nannizzia gypsea.
For the molecule `CC(=O)N1CCN(c2ccc(OCC3COC(Cn4ccnc4)(c4ccc(Cl)cc4Cl)O3)cc2)CC1` (centres undefined) [KETOCONAZOLE], the MIC80 in the experiment on Candida albicans [1] was found to be 0.25 µg/mL (≈ 0.47 µM); against Candida albicans [2] it was 0.125 µg/mL (≈ 0.235 µM); against Candida parapsilosis it was 0.5 µg/mL (≈ 0.941 µM); in the experiment with Cryptococcus neoformans, 0.0625 µg/mL (≈ 0.118 µM); in the experiment with Nakaseomyces glabratus, 0.0625 µg/mL (≈ 0.118 µM); against Aspergillus fumigatus, 4 µg/mL (≈ 7.53 µM). For the same molecule, the MIC80 against Trichophyton rubrum and against Nannizzia gypsea was 1 µg/mL (≈ 1.88 µM) throughout.
For the molecule `C[C@@H](c1nc(-c2ccc(C#N)cc2)cs1)[C@](O)(Cn1cncn1)c1ccc(F)cc1F` [RAVUCONAZOLE], the MIC80 was 0.0625 µg/mL (≈ 0.143 µM) against Candida albicans [1]; 0.0625 µg/mL (≈ 0.143 µM) with Candida albicans [2]; 0.25 µg/mL (≈ 0.571 µM) in the experiment on Candida parapsilosis; 0.125 µg/mL (≈ 0.286 µM) in the experiment with Cryptococcus neoformans; 0.125 µg/mL (≈ 0.286 µM) with Nakaseomyces glabratus; 2 µg/mL (≈ 4.57 µM) with Aspergillus fumigatus. The MIC80 was 0.125 µg/mL (≈ 0.286 µM) against Trichophyton rubrum and 1 µg/mL (≈ 2.29 µM) in the experiment with Nannizzia gypsea.

For the origin of these results see ChEMBL document CHEMBL4038287, “Design, synthesis, and in vitro evaluation of novel antifungal triazoles” (2017).
